Several values for one entry are separate records, joined by “and”; a condition that tells them apart may be missing. Identical values can stand only once. Like-named read-outs stand apart in the source and are kept apart here.
Columns and labels:
B10 mice = assay: Glucose phosphate isomerase-1 (GPI-1) typing of platelets and erythrocytes in mixed allogeneic chimeras; type: in vivo, mouse; details: 5 Gy TBI-based regimen, individual animals, 2 months
Procedure: Peripheral blood (0.9 ml) was collected into heparinized microcentrifuge vials. The blood was spun for four seconds at the maximal setting (14,000 rpm) of an Eppendorf microcentrifuge (Beckman #5415). This setting was chosen through an optimization strategy in which force and times were varied as a function of retrieved platelet number. This duration included the acceleration phase, which is incomplete when power is curtailed at the four second mark. After this, the samples were allowed to slow to a halt without braking. Platelet-rich plasma was then carefully aspirated with a disposable polyethylene pipette, avoiding any disturbance of the buffy coat. Triplicate platelet counts were obtained using a Coulter Model ZB1 counter (Hialeah, Fla.), and the average (variation 5%) calculated. […]
Typing of red blood cell (RBC) and platelet phenotypes was performed using the GPI-1 assay (Ildstad, et al., 1991, J Exp Med 174:467). The precipitation pattern for BALB/c mouse and B10 mouse were performed as controls and determined to be totally disparate. […] Percentages were determined by comparison with the positive control. […] In titrations performed to determine the sensitivity of this assay, as low as 2% of BALB/c RBC titrated into normal B10RBC could be reliably detected (Ildstad, et al., 1991, J Exp Med 174:467). […]

C57BL/6J mice = details: C57BL/6J (n=6); 300 cGy TBI + 200 mg/kg CyP
Text: (§1) Three to five week old C57BL/10-Cd4^tml(CD4-KO;H2^b, n=5), C57BL/6J-CD4^tm/mak (CD4-KO; H2^b, n=15) CD57BL/6JCD8α^tm/mak (CD8-KO; H2^b, n=16), C57BL/6J (B6; H2^b, n=6), C57BL/6-6d4^tm/mak (CD4-KO) and C57BL/6-Cd8^tm/mak (CD8-KO)recipient mice, as well as three to five week old B10.BR/SgSnJ (B10.BR, H2^k) donor mice were purchased from the Jackson Laboratory (Bar Harbor, Me.). Knock-out mice were housed in a special pathogen-free barrier facility, while donor mice were housed in a conventional barrier animal facility. Mice were cared for according to National Institute of Health animal care guidelines.
(§2) Bone marrow was prepared as previously described (Ildstad and Sachs, Nature, 307:168 (1984)). Briefly, B10.BR donor mice were euthanized and tibias and femurs harvested. Bone marrow was expelled from the bones with Media 199 (Gibco, Grand Island, N.Y.) containing 10 μg/ml Gentamicin (Gibco) (MEM). The cells were filtered through sterile nylon mesh with 100 μm pores, spun for minutes at 200×g and 4° C., and resuspended in MEM. A cell count was performed and the cells were diluted to a final concentration of 15×10^6 bone marrow cells per 1 ml of MEM.
(§3) CD4-KO and CD8-KO mice were treated with TBI from a cesium source (Gamma-cell 40, Nordion, Ontario, Canada). Doses from 0 to 300 cGy were administered according to the experimental groups. Animals were transplanted with 1 ml MEM containing 15×10^6 B10.BR bone marrow cells via lateral tail vein injection within 4 hours after irradiation.
(§4) Peripheral blood was obtained from the mice by tail-vein bleeding. The blood was collected in heparinized Eppendorf tubes 28 days, 3 months and 6 months after BMT. Fifty μl of whole blood were incubated for 7 minutes with 2 ml of lysing buffer (8.29 g of NH4Cl, 1.0 g of KHCO3 and 0.0372 g Na2EDTA in 1 liter H2O to lyse red blood cells. The cells were washed with 2 ml FACS medium (0.36 g NaHCO3, 1.0 g NaN3 and 1.0 g bovine serum albumin in 1 liter Hanks Balanced Salt Solution and spun at 200×g for 10 minutes at 4° C. After the supernatant was carefully decanted, cells were mixed with 10 μl diluted monoclonal antibodies (mAb; details discussed infra) and incubated for 30 minutes at 4° C. in the dark. The appropriate dilution for the use of the mAb was determined in titration experiments prior to use. After the incubation, the cells were washed twice with 2 ml of FACS medium and spun at 200×g for minutes at 4° C. Finally, the cells were fixed with 1% paraformaldehyde in PBS. The analyses were carried out on a FACS-Calibur (Becton Dickinson, Mountain View, Calif.) with CellQuest software (Becton Dickinson).
(§5) PBL were stained with mAb specific for MHC Class I antigens of donor (FITC conjugated anti-H2K^k, 36-7-5, mouse IgG1) and recipient (PE-conjugated anti-H2K^b, AF6-88.5, mouse IgG2a) origin to determine the percentage of donor chimerism. Multi-lineage engraftment was assessed by staining with biotinylated anti-H2K^k (36-7-5, mouse IgG1), FITC-conjugated anti-H2K^b (AF6-88.5, mouse IgG2a) and PE-conjugated lineage markers 3 months after BMT. The biotinylated antibody was recovered with Streptavidin-Allophycocyanin (SA-APC). The following antibodies were used as lineage markers: anti-GR-1 (RB6-8C5, rat IgG2^b); anti-MAC-1 (M1/70, rat IgG2^b); anti-CD4 (RM4-5, rat IgG2a); anti-CD8α (53-6.7, rat IgG2a); anti-B220 (RA3-6B2, rat IgG2a); anti-NK1.1 (PK136, mouse IgG2a); anti-TCR-β chain (H57-597, hamster IgG); and anti-γδ-TCR (GL3, hamster IgG). Non-specific background staining was controlled for by using isotype control antibodies directed against irrelevant antigens and conjugated with the same color as the experimental antibody (i.e., anti-TNP mouse IgG2a conjugated with PE served as isotype control for PE-conjugated anti-H2K^b mouse IgG2a). All mAb were obtained from PharMingen (San Diego, Calif.). SA-APC was purchased from Becton Dickinson (Mountain View, Calif.).

CD4-KO mice = details: 300 cGy TBI + 200 mg/kg CyP
Text: as §1, §2, §3, §4, §5

## O=P1(N(CCCl)CCCl)NCCCO1 (stereo not drawn) [CyP, cyclophosphamide]
B10 mice
  % BALB/c RBC: 100%
  % BALB/c platelets: 71% and 78% and 69% and 31%
C57BL/6J mice
  % animals that engrafted: 0%
CD4-KO mice; 15 C57BL/6-Cd4 tm/mak mice
  CD4-KO mice that engrafted: None
CD4-KO mice; C57BL/6-Cd4 tm/mak (n=15)
  % animals that engrafted: 0%
CD4-KO mice; C57BL/10-Cd4 tml (n=5)
  % animals that engrafted: 0%

— US20030165475A1, “Non-lethal methods for conditioning a recipient for bone marrow transplantation” (priority 1993, published 2003)
